# Experimental data taken from US7235584B2, “Non-psychotropic cannabinoids” (Pharmos Corporation, priority 2000, dated 2007).
# Key:
# [1] = system: transient MCAo in rats; assay: Transient middle cerebral artery occlusion (MCAo), infarct size evaluation; assay type: in vivo
# Source text: The middle cerebral artery is the cerebral blood vessel most susceptible to stroke in humans. In animals, coagulation, permanent ligation or permanent placement of an occluding thread ink the artery produces a permanent focal stroke affecting the MCA territory. Transient ligation or occlusion results in transient focal stroke. Both transient and permanent focal strokes result in varying degrees of edema and infarction in the affected brain regions. The ability of compounds to reduce the volumes of edema and infarction is considered a measure of their potential as anti-stroke treatment.
# • a. Male rats (8/treatment group) 320–380 gr. (Harlan Israel). • b. Halothane (Rhone Poulenc France) • c. Pentobarbitone (Pental Veterinary, CTS Israel). • d. Poly-L-Lysine (Sigma, USA). • e. Silk suture material 3-0 and 4-0. • f. Nylon (Polyamid) suture material 3-0. Four cm pieces were cut and positioned in a solution of 1% Poly-L-Lysine for 1 minute and dried in an oven (60 ° C.) for 60 minutes. The tip of each piece was rounded under a flame. • g. Saline (Teva Medical). • h. Blank cremophor ethanol cosolvent (Pharmos). • i. Dexanabinol in cremophor ethanol cosolvent 50 mg/ml. (Both Dexanabinol and its vehicle were diluted in saline prior to drug administration. • j. Analogs PRS-211,092, PRS-211,095, PRS-211,128 PRS-211,132 and PRS-211,220 in cremophor ethanol cosolvent, 50 mg/ml. • k. The analogs were diluted in saline prior to drug administration. Methods Transient MCAo
# a. Surgical details of the MCAO method used for testing dexanabinol analogs, are presented in Belayev, et al., (Belayev, Busto, Weizhao, and Ginsberg, Stroke 26:2313–2319, 1995) which is incorporated herein in its entirety by reference.
# b. Two hours after the start of MCAo, the animals were reanesthetized with halothane, the neck wound was re-opened and the nylon thread pulled out of the Internal carotid artery (ICA). The skin wound was then closed with 3-0 silk suture material and the animals allowed to recover from the anesthesia.
# c. Three sets of animals were tested. In the first test immediately (2+0 hours) before thread removal the animals were injected IV with either analogs PRS 211,095, PRS 211,128, PRS 211,132, or Dexanabinol (PRS 211,007) each at a dosage of 5 mg/kg. One group of animals was treated with 5mi/kg vehicle alone. In another group, the animals subjected to “sham” operation, the suture was passed into the ICA, as described above, but immediately withdrawn. […] Laser Doppler Flow (LDF) determined the success of MCAo—a drop of more then 50% in cerebral blood flow was considered as a sign of successful MCAO. […]
# A detailed investigation of neurological performance was carried out on the first, third and the 7th day after the MCAo. […] Animals were scored according to their performance: […]
# [2] = system: MPTP-mouse model of Parkinson's disease; assay: MPTP model of Parkinson's disease, TH-IR neurons in SNpc; assay type: in vivo, C57/BL mice; conditions: seven days after MPTP
# Experimental: MPTP-induced model of Parkinson's Disease (PD) in mice is used to evaluate the value of the novel PRS-211 compounds as therapeutic agents for PD.
# The MPTP-mouse model of Parkinson's disease is used to test the efficacy of the compounds to prevent the onset of PD symptoms.
# The protocol is based on Liberatore et al. (Liberatore, Jackson-Lewis, Vukosavic, Mandir, Vila , McAuliffe, Dawson, Dawson and Przedborski, Nature Medicine 5:1403–9, 1999).
# The treatment groups are as follows: • Vehicle 5 ml/kg IP once just before MPTP administration. • Dexanabinol or analog 10 mg/kg IP once just before MPTP administration. • Dexanabinol or analog 20 mg/kg IP once just before MPTP administration. • Dexanabinol or analog 20 mg/kg IP once just before MPTP administration+additional dose 24 hours later.
# Seven days after MPTP administration the mice were euthanized and their brains removed cut and stained using an antiserum to tyrosine hydroxylase (TH-IR), the rate limiting enzyme in monoamainergic neurons. Attention was focused on the Substantia nigra, pars compacta (SNpc), which are comprise of dompaminergic neurons that project to the striatum. It is these neurons that undergo degeneration in Parkinson's Disease. MPTP acts as a specific neurotoxin for these neurons, and the aim was to determine whether MPTP-induced nerve degeneration could be ameliorated by Dexanabinol at 10 (D-10), 20 (D-20) or 30 (D-30) mg/kg, or 2 injections of Dexanabinol at 20mg/kg (D-20×2) relative to vehicle alone (V).
# The rescue effect of the various treatments was calculated by comparing the number of the TH-IR cells in each group relative to that in animals treated with MPTP alone, which was arbitrarily assigned a value of zero.
structure (smiles),measurement,setting,value
"CCCCCCC(C)(C)c1cc(O)c2c(c1)OC(C)(C)C1CC=C(Cn3ccnc3)CC21.Cl (single isomer, unassigned; (+)) [211,095-000, (+)-(3S ,4S )-6,6-Dimethyl-(1,1-dimethylheptyl)-1-hydroxy-9-(imidazolomethyl)-6a,7,10,10a-tetrahydro-6H-dibenzo[b,d]pyran]",Behavioral/neurological outcome,"[1]; posture and flexion reflex, days 1, 3, 7 after MCAo",fewer neurological deficits and recovered faster
same,Mortality rate,"[1]; transient MCAo, 5 mg/kg IV at 2+0 hours",No mortality
same,reduction of infarct size,"[1]; transient MCAo, one week after the ischemic insult",60%
"CCCCCCC(C)(C)c1cc(O)c2c(c1)OC(C)(C)[C@H]1CC=C(CO)CC21 (stereo partly drawn) [211,007-000, 1,1 dimethyl heptyl-(3S,4S)-7-hydroxy-Δ^6-tetrahydrocannabinol]",TH-IR SNpc (rescue effect relative to MPTP alone = 0),[2]; 10 mg/kg IP,−7.85
same,TH-IR SNpc (rescue effect relative to MPTP alone = 0),[2]; 20 mg/kg IP,28.52
same,TH-IR SNpc (rescue effect relative to MPTP alone = 0),[2]; 30 mg/kg IP,22.73
same,TH-IR SNpc (rescue effect relative to MPTP alone = 0),[2]; 2 injections at 20 mg/kg,8.5
